*1 amine or outer side, *2 acyl side, *3 side chain or, on linkers, in order; H or OH if unused. Where a SMILES comes first, the peptide text is derived from it. Bridges are numbered along the chain shown (N, C = ends). [ ]: non-standard residue; d: D form. The star is where a group is joined. hPhe(3-Cl-4-CF3) = N[C@@H](CCc1ccc(C(F)(F)F)c(Cl)c1)C(=O)O; X51 = CCCN([C@@H](Cc1ccc(OC(F)(F)F)cc1)C(=O)[*:2])[*:1]; NPrPhe(4-CF3) = CCCN[C@@H](Cc1ccc(C(F)(F)F)cc1)C(=O)O; NMeGly(cPent) = CN[C@H](C(=O)O)C1CCCC1; Aze(3S-Me) = C[C@H]1CN[C@@H]1C(=O)O; Gly(cPent) = N[C@H](C(=O)O)C1CCCC1; cisHyp = O=C(O)[C@@H]1C[C@H](O)CN1; Hyp = O=C(O)[C@@H]1C[C@@H](O)CN1; NMeD = CN[C@@H](CC(=O)O)C(=O)O; NMeL = CN[C@@H](CC(C)C)C(=O)O; Morpholide = C1CN(*)CCO1; NMeA = CN[C@@H](C)C(=O)O; Ac5c = NC1(C(=O)O)CCCC1; Aze = O=C(O)[C@@H]1CCN1; Ethyl(2,2-F2) = FC(F)C*; Ac4c = NC1(C(=O)O)CCC1; Ac3c = NC1(C(=O)O)CC1; Sar = CNCC(=O)O

The values below come from EP4603105A1, “PHARMACEUTICAL COMPOSITION CONTAINING CYCLIC COMPOUND HAVING SELECTIVE KRAS INHIBITORY EFFECT AGAINST HRAS AND NRAS” (CHUGAI SEIYAKU KABUSHIKI KAISHA, priority 2022, dated 2024).

The test system of the assay is human lung cancer strain NCI-H441. Type of assay: cell-based. Here is the method:
A test compound was dispensed into a U-bottom 384-well plate as 40 nL serially diluted dimethyl sulfoxide solutions using a liquid handler Echo (LABCYTE). […] This cell suspension was dispensed in an amount of 40 µL per well into a plate containing the test compound, and cultured at 37°C in a 5% carbon dioxide gas incubator. Four days later, 20 µL of CellTiter-Glo (registered trademark) (Promega) was added to each well and […] was measured. […]
`CCCN1C(=O)CN(C)C(=O)CN(C)C(=O)[C@H]([C@@H](C)CC)NC(=O)[C@H](CC(C)C)N(C)C(=O)C[C@@H](C(=O)N2CCOCC2)N(C)C(=O)[C@H](C2CCCC2)N(C)C(=O)C2(CCCC2)NC(=O)[C@@H]2CCCN2C(=O)[C@H](CCc2ccc(C(F)(F)F)c(Cl)c2)NC(=O)CN(C)C(=O)[C@@H]1Cc1ccc(OC(F)(F)F)cc1` [PP0137] ([NMeL]I[Sar][Sar][X51][Sar][hPhe(3-Cl-4-CF3)]P[Ac5c][NMeGly(cPent)][NMeD]-Morpholide; lactam N-11): half-maximal inhibition (IC50) was put at 13.4 nM. This counts as double-digit nanomolar.

Consider `CCCN1C(=O)CN(C)C(=O)CN(C)C(=O)[C@H]([C@@H](C)CC)NC(=O)[C@H](CC(C)C)N(C)C(=O)C[C@@H](C(=O)N2CCOCC2)N(C)C(=O)[C@H](C2CCCC2)N(C)C(=O)C2(CCCC2)NC(=O)[C@@H]2C[C@H](OCC(F)F)CN2C(=O)[C@H](CCc2ccc(C(F)(F)F)c(Cl)c2)NC(=O)CN(C)C(=O)[C@@H]1Cc1ccc(C(F)(F)F)cc1` [PP0245] ([NMeL]I[Sar][Sar][NPrPhe(4-CF3)][Sar][hPhe(3-Cl-4-CF3)][cisHyp](Ethyl(2,2-F2))[Ac5c][NMeGly(cPent)][NMeD]-Morpholide; lactam N-11), for which half-maximal inhibition (IC50) was put at 22.9 nM.

Take `CCCN1C(=O)CN(C)C(=O)CN(C)C(=O)[C@H](C2CCCC2)NC(=O)[C@H](CC(C)C)N(C)C(=O)C[C@@H](C(=O)N2CCOCC2)N(C)C(=O)[C@H](C2CCCC2)N(C)C(=O)C2(CCCC2)NC(=O)[C@@H]2CCCN2C(=O)[C@H](CCc2ccc(C(F)(F)F)c(Cl)c2)NC(=O)CN(C)C(=O)[C@@H]1Cc1ccc(C(F)(F)F)cc1` [PP0251] ([NMeL][Gly(cPent)][Sar][Sar][NPrPhe(4-CF3)][Sar][hPhe(3-Cl-4-CF3)]P[Ac5c][NMeGly(cPent)][NMeD]-Morpholide; lactam N-11): half-maximal inhibition (IC50) required 8.4 nM.

For `CCCN1C(=O)[C@@H]2CCN2C(=O)C2(CC2)NC(=O)[C@H]([C@@H](C)CC)NC(=O)[C@H](CC(C)C)N(C)C(=O)C[C@@H](C(=O)N2CCOCC2)N(C)C(=O)[C@H](C2CCCC2)N(C)C(=O)C2(CCCC2)NC(=O)[C@@H]2CCCN2C(=O)[C@H](CCc2ccc(C(F)(F)F)c(Cl)c2)NC(=O)CN(C)C(=O)[C@@H]1Cc1ccc(C(F)(F)F)cc1` [PP0276] ([NMeL]I[Ac3c][Aze][NPrPhe(4-CF3)][Sar][hPhe(3-Cl-4-CF3)]P[Ac5c][NMeGly(cPent)][NMeD]-Morpholide; lactam N-11), the IC50 (in general, the concentration that inhibits the measured activity by half) is 752 nM.

With `CCCN1C(=O)[C@@H]2CCN2C(=O)[C@@H]2[C@@H](C)CN2C(=O)[C@H]([C@@H](C)CC)NC(=O)[C@H](CC(C)C)N(C)C(=O)C[C@@H](C(=O)N2CCOCC2)N(C)C(=O)[C@H](C2CCCC2)N(C)C(=O)C2(CCCC2)NC(=O)[C@@H]2CCCN2C(=O)[C@H](CCc2ccc(C(F)(F)F)c(Cl)c2)NC(=O)CN(C)C(=O)[C@@H]1Cc1ccc(C(F)(F)F)cc1` [PP0279] ([NMeL]I[Aze(3S-Me)][Aze][NPrPhe(4-CF3)][Sar][hPhe(3-Cl-4-CF3)]P[Ac5c][NMeGly(cPent)][NMeD]-Morpholide; lactam N-11), half-maximal inhibition (IC50) required 15 nM.

Regarding `CCCN1C(=O)[C@@H]2CCN2C(=O)CN(C)C(=O)[C@H]([C@@H](C)CC)NC(=O)[C@H](CC(C)C)N(C)C(=O)C[C@@H](C(=O)N(C)C)NC(=O)[C@H](C2CCCC2)N(C)C(=O)C2(CCCC2)NC(=O)[C@@H]2CCCN2C(=O)[C@H](CCc2ccc(C(F)(F)F)c(Cl)c2)NC(=O)CN(C)C(=O)[C@@H]1Cc1ccc(C(F)(F)F)cc1` [PP0385] ([NMeL]I[Sar][Aze][NPrPhe(4-CF3)][Sar][hPhe(3-Cl-4-CF3)]P[Ac5c][NMeGly(cPent)]D-NMe2; lactam N-11), the midpoint of inhibition, the IC50, lay at 15.2 nM.

Molecule `CCCN1C(=O)[C@@H]2CCN2C(=O)[C@H](C)N(C)C(=O)[C@H]([C@@H](C)CC)NC(=O)[C@H](CC(C)C)N(C)C(=O)C[C@@H](C(=O)N(C)C)N(C)C(=O)[C@H](C2CCCC2)N(C)C(=O)C2(CCC2)NC(=O)[C@@H]2C[C@@H](OCC)CN2C(=O)[C@H](CCc2ccc(C(F)(F)F)c(Cl)c2)NC(=O)CN(C)C(=O)[C@@H]1Cc1ccc(C(F)(F)F)cc1` [PP0439] ([NMeL]I[NMeA][Aze][NPrPhe(4-CF3)][Sar][hPhe(3-Cl-4-CF3)][Hyp](Et)[Ac4c][NMeGly(cPent)][NMeD]-NMe2; lactam N-11) showed an IC50 of 0.7 nM.
